Holding throughout (test): NCI anticancer screen, dose series, 48 h
Assay [1] relates to DLD-1.
Assay [2] relates to DMS-114.
Assay [3] relates to DMS-273.
The test system of assay [4] is HOP-18.
Assay [5] concerns KM-20L2.
In assay [6] the test system is M19-MEL.
Assay [7] has as its system RXF 631.
In assay [8] the test system is SNB-78.
The test system of assay [9] is XF498.

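Each compound was tested at five concentrations against cells in 96-well plates for 48 hours. Abbreviation: GI50, concentration required for 50% inhibition of growth.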 Active and inactive are the calls of the source. Rule as the data show it: active = GI50 up to about 1.1 µM and inactive = higher.

On to `CCC1(OC(C)=O)C(=O)OCc2c1cc1n(c2=O)Cc2cc3ccccc3nc2-1` (centres undefined), for which the GI50 in [1] is > 66.4 µM (inactive); in [2] it was 0.611 µM (active); in [3], 0.388 µM (active); in assay [4] it was > 34.8 µM (inactive); in assay [5], 7.01 µM (inactive); in [6] it was 2.48 µM (inactive). Besides, the GI50 in assay [7] is 3.85 µM (inactive); in assay [8], > 40.9 µM (inactive); in assay [9], 17.9 µM (inactive).

These data come from ChEMBL document CHEMBL1201862, “PubChem BioAssay data set” (2004).
